{
  "source": "patent US4937229A",
  "about": "“Pineapple ketone carbonate derivatives” (priority 1989, dated 1990)",
  "key": {"[1]": {"details": "0 min", "method": "(§1) Solutions containing respectively 10 percent carbonate and ten percent pineapple ketone in toluene are stirred in loosely capped vials at ambient temperature. Samples are taken periodically and the concentration of carbonate or ketone remaining determined by GLC (6'×1/8\", 15% Carbowax-20M on 80/100 Chromasorb W, Helium=28 cc/min, 100°-210° at 8°/min). The experiment is repeated using ethanol as solvent."}, "[2]": {"experiment": "physchem", "details": "toluene", "method": "as §1"}},
  "note": "Like-named read-outs stand apart in the source and are kept apart here.",
  "data": [
    {"molecule": "CC1=C(O)C(=O)C(C)O1", "note": "(stereo not drawn) [Pineapple ketone, 2,5-dimethyl-4-hydroxy-3(2H)-furanone]", "values": [
      {"measurement": "% Remaining", "setting": "0 min", "result": 100, "unit": "%"},
      {"measurement": "% Remaining", "setting": "toluene, 15 h", "result": 24, "unit": "%"},
      {"measurement": "% Remaining", "setting": "toluene, 41 h", "result": 18, "unit": "%"},
      {"measurement": "% Remaining", "setting": "toluene, 116 h", "result": 6, "unit": "%"},
      {"measurement": "% Remaining", "setting": "toluene, 138 h", "result": 4, "unit": "%"},
      {"measurement": "% Remaining", "setting": "[1]", "result": 100, "unit": "%"},
      {"measurement": "remaining at 21 h", "setting": "[2]", "result": 100, "unit": "%"},
      {"measurement": "remaining at 48 h", "setting": "[2]", "result": 58, "unit": "%"},
      {"measurement": "remaining at 72 h", "setting": "[2]", "result": 30, "unit": "%"},
      {"measurement": "remaining at 149 h", "setting": "[2]", "result": 8, "unit": "%"},
      {"measurement": "remaining at 172 h", "setting": "[2]", "result": 9, "unit": "%"}
    ]},
    {"molecule": "CCOC(=O)OC1=C(C)OC(C)C1=O", "note": "(stereo not drawn) [Example 1, ETHYL 2,5-DIMETHYL-3-OXO-4(2H)-FURYL CARBONATE]", "values": [
      {"measurement": "% Remaining", "setting": "0 min", "result": 100, "unit": "%"},
      {"measurement": "% Remaining", "setting": "[1]", "result": 100, "unit": "%"},
      {"measurement": "remaining at 21 h", "setting": "[2]", "result": 100, "unit": "%"},
      {"measurement": "remaining at 46 h", "setting": "[2]", "result": 100, "unit": "%"},
      {"measurement": "remaining at 69 h", "setting": "[2]", "result": 100, "unit": "%"},
      {"measurement": "remaining at 149 h", "setting": "[2]", "result": 100, "unit": "%"},
      {"measurement": "remaining at 173 h", "setting": "[2]", "result": 100, "unit": "%"}
    ]}
  ]
}
